B1: prolactin: hormone from prolactin-secreting cells of the anterior pituitary; prolactin receptor agonist (PeproTech 100-07) (protein, UniProt P01236 29-227, looked up)
Prolactin: LPICPGGAARCQVTLRDLFDRAVVLSHYIHNLSSEMFSEFDKRYTHGRGFITKAINSCHTSSLATPEDKEQAQQMNQKDFLSLIVSILRSWNEPLYHLVTEVRGMQEAPEAILSKAVEIEEQTKRLLEGMELIVSQVHPETKENEIYPVWSGLPSLQMADEESRLSAYYNLLHCLRRDSHKIDNYLKLLKCRIIHNNNC

Assays:
Assay type in all cases: cell-based, human
[1] = system: gluconeogenesis-related genes, urea production-related genes and CYP genes in liver organoid; assay: Quantitative real-time PCR of liver organoids, A83-01 removed from differentiation medium; conditions: liver organoids cultured in DM medium from which A83-01 had been removed, versus DM medium
Text: A liver organoid was produced in the same manner as in Experimental Example 3, except that the transforming growth factor β receptor antagonist (A83-01) was removed from the differentiation medium (DM medium), and the expression of the gluconeogenesis-related genes, the urea production-related genes, and the CYP genes was examined by quantitative real-time PCR.
(§1) A total RNA was extracted from cells using Direct-zol RNA Kit micro (Zymo Research, catalog number: #R2063), and a reverse transcription reaction was carried out using a PrimeScript RT Master Mix (Takara Bio, catalog number: RR036A) to obtain a cDNA. Subsequently, quantitative real-time PCR was performed using LightCycler 480 System (Roche) and using TB Green Premix Ex Taq II (Takara Bio, catalog number: #RR820A). The cDNA of the primary human hepatocyte was diluted to create a calibration curve.

liver organoid [2] = assay: Gluconeogenesis of liver organoid (glucose quantified in medium supernatant, Glucose-Glo Assay); conditions: for gluconeogenesis of the liver organoid: glucose corrected by ATP, donor 9
Experimental: Subsequently, the medium was replaced with a Gluconogenesis assay medium having the composition shown in Table 4 below (hereinafter sometimes referred to as a “GM medium”), and incubation was performed for 24 hours in an environment of 37° C., 1 atm, and a CO2 concentration of 5 v/v %. The supernatant of the medium after the incubation was collected, and glucose and urea included in the medium were quantified. The measurement results will be described later.
The glucose was measured according to a protocol of the manufacturer using a Glucose-Glo™ Assay (Promega, catalog number: J6022). […]
In addition, the liver organoid after the incubation were washed three times with Fasting Medium (hereinafter sometimes referred to as an “FM medium”) having the composition shown in Table 3, FM was added thereto at 500 μL/well, and incubation was performed for 18 hours in an environment of 37° C., 1 atm, and a CO2 concentration of 5 v/v %.
Subsequently, the medium was replaced with a Gluconogenesis assay medium having the composition shown in Table 4 (hereinafter sometimes referred to as a “GM medium”), and incubation was performed for 24 hours in an environment of 37° C., 1 atm, and a CO2 concentration of 5 v/v %. The supernatant of the medium after the incubation was collected, and glucose and urea included in the medium were quantified. The quantification of glucose and urea was performed in the same manner as in Experimental Example 1. The measurement results will be described later.
The medium of the liver organoid, which had been produced in the same manner as in Experimental Example 2 and expansion-cultured for 2 weeks, was replaced with a differentiation medium (hereinafter sometimes referred to as a “DM medium”) having the composition shown in Table 6 below at 500 μL/well, and incubated for 2 weeks in an environment of 37° C., 1 atm, and a CO2 concentration of 5 v/v %. The medium was replaced every 7 days.
Subsequently, gluconeogenesis, urea production, albumin production, and bile acid production of the liver organoid were evaluated in the same manner as in Experimental Example 2. The results of the amount of glucose produced and the amount of urea produced will be described later.

liver organoid [3] = assay: Urea production of liver organoid (Quantichrom Urea Assay Kit); conditions: metformin 1 mM or 10 mM added to MM, FM and GM medium; organoid cultured in DM medium
Experimental: The urea was measured according to a protocol of the manufacturer using Quantichrom Urea Assay Kit (Bioassay Systems, catalog number: DIUR-100).

[4] = system: gluconeogenesis-related genes (FBP1, PCK1) in liver organoid; assay: Quantitative real-time PCR of liver organoids, gluconeogenesis medium composition changed; conditions: 1 μM insulin in GM medium with 200 pg/mL glucagon and 400 ng/mL cortisol; FM 6 hours, GM 4 hours; donor 2
Experimental: A GM medium obtained by removing glucagon and cortisol from the gluconeogenesis medium (GM medium) having the composition shown in Table 4, and further adding the components shown in Table 15 was prepared. Liver organoids were produced in the same manner as in Experimental Example 3, except that the incubation was performed for 6 hours after the addition of the FM medium and then the incubation was performed for 4 hours after the addition of the GM medium. In addition, the donor of the primary human hepatocyte used for the production of the liver organoid was a donor 2.
as §1, with “Subsequently, the expression of various genes in each of the produced liver organoids was analyzed by quantitative real-time PCR (qPCR). Specifically, a total” for “A total”

[5] = factor included in differentiation medium at varied concentrations (Tables 9, 10)
[6] = factor included in gluconeogenesis medium (Tables 17, 18)

| Molecule | gluconeogenesis of the liver organoid (liver organoid [2]; [5]) | gluconeogenesis of the liver organoid (liver organoid [2]; [6]) | also measured |
| --- | --- | --- | --- |
| Cc1cccc(-c2nn(C(=S)Nc3ccccc3)cc2-c2ccnc3ccccc23)n1 [A83-01] |  |  | expression of the gluconeogenesis-related genes, the urea production-related genes, and the CYP genes [1]: decreased |
| C[C@]12CCC(=O)C=C1CC[C@@H]1[C@@H]2[C@@H](O)C[C@@]2(C)[C@H]1CC[C@]2(O)C(=O)CO [cortisol, reference compound] | improved in a manner dependent on the concentrations of added factors | improved |  |
| CN(C)C(=N)N=C(N)N [metformin, reference compound] |  |  | urea production in the liver organoid (liver organoid [3]): suppressed; gluconeogenesis in the liver organoid (liver organoid [2]; metformin 1 mM or 10 mM added to MM, FM and GM medium, organoid cultured in DM medium): suppressed |
| glucagon: hormone that increases blood glucose level through glycogenolysis and gluconeogenesis in the liver (Sigma G2044) |  | improved |  |
| growth hormone: hormone secreted from the anterior pituitary; growth hormone receptor agonist (PeproTech 100-40) | improved in a manner dependent on the concentrations of added factors | improved |  |
| insulin: insulin added at 1 μM to the gluconeogenesis medium |  |  | expression of the gluconeogenesis-related genes [4]: suppresses |
| B1 | improved in a manner dependent on the concentrations of added factors | improved |  |

From patent publication US20260185054A1, “METHOD FOR PRODUCING METABOLICALLY ACTIVATED LIVER ORGANOID, COMPOSITION, AND METHOD FOR EVALUATING TEST SUBSTANCE” (JSR CORPORATION, priority 2023, published 2026)
